Reference: ChEMBL document CHEMBL1201862, “PubChem BioAssay data set” (2004)
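Step 1: Grow cells in 96-well plates. Step 2: Expose to compound for 48 hours at 5 concentrations. Step 3: Interpolate endpoints linearly; if unreached, use highest concentration. GI50: concentration for 50% inhibition of growth.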 Activity calls are given as the source filed them. Cut-off read from the data, not from the text of the source: active = GI50 up to about 1.1 µM and inactive = higher.

Experiments:
Assay in all cases: NCI-60 cell line screen, 48 h
MDA-MB-435 = test system: MDA-MB-435
NCI-H522 = test system: NCI-H522
UO-31 = test system: UO-31
SF-539 = test system: SF-539
IGROV-1 = test system: IGROV-1
SK-MEL-28 = test system: SK-MEL-28
UACC-62 = test system: UACC-62
Malme-3M = test system: Malme-3M
786-0 = test system: 786-0
SN12C = test system: SN12C
Hs-578T = test system: Hs-578T
MDA-N = test system: MDA-N
SK-MEL-5 = test system: SK-MEL-5
SR = test system: SR
COLO 205 = test system: COLO 205
ACHN = test system: ACHN
HCT-15 = test system: HCT-15
U-251 = test system: U-251
OVCAR-5 = test system: OVCAR-5
OVCAR-4 = test system: OVCAR-4

Row | SMILES | GI50 (MDA-MB-435) | GI50 (NCI-H522) | GI50 (UO-31) | GI50 (SF-539) | GI50 (IGROV-1) | GI50 (SK-MEL-28) | GI50 (UACC-62) | GI50 (Malme-3M) | GI50 (786-0) | GI50 (SN12C) | GI50 (Hs-578T) | GI50 (MDA-N) | GI50 (SK-MEL-5) | GI50 (SR) | GI50 (COLO 205) | GI50 (ACHN) | GI50 (HCT-15) [µM] | GI50 (U-251) | GI50 (OVCAR-5) | GI50 (OVCAR-4)
1 | COc1cc2c(c(OC)c1)C(C)=NC(C)C2 (stereo not drawn) | > 100 µM (inactive) | 76.7 µM (inactive) | > 100 µM (inactive) | > 100 µM (inactive) | > 100 µM (inactive) | > 100 µM (inactive) | > 100 µM (inactive) | > 100 µM (inactive) | > 100 µM (inactive) | > 100 µM (inactive) | > 100 µM (inactive) | > 100 µM (inactive) | > 100 µM (inactive) | > 100 µM (inactive) | > 100 µM (inactive) | > 100 µM (inactive) | > 100 |  |  | 
2 | Nc1ccccc1/N=C/c1cc2cc([N+](=O)[O-])ccc2s1 | 31.4 µM (inactive) | 15.1 µM (inactive) | 15.7 µM (inactive) | 12.1 µM (inactive) | 7.59 µM (inactive) | 22 µM (inactive) | 12.6 µM (inactive) | 26.6 µM (inactive) | 14.5 µM (inactive) | 23.8 µM (inactive) | 15.1 µM (inactive) | 37.8 µM (inactive) | 21.4 µM (inactive) | 11 µM (inactive) | 17.8 µM (inactive) | 11.6 µM (inactive) | 43.3 | 14.5 µM (inactive) | 32.7 µM (inactive) | 
3 | CC(=O)OCC(OC(C)=O)C1C[C@H]2O[C@@H]3[C@H](C[C@H]2O1)O[C@@]1(C[C@@H]3C)C[C@H](C)[C@@H]2O[C@]3(C[C@@H]2O1)C[C@H]1O[C@H]2[C@H](C)[C@H]4OC(=O)CC5CC[C@H]6OC7[C@H]8O[C@]9(CC[C@H]%10CC(O)(CO)[C@H](CC[C@H]%11C[C@@H](C)C(O)(CO)C(C[C@@H]4O[C@H]2C[C@H]1O3)O%11)O%10)CC8O[C@@H]7[C@@H](O9)[C@H]6O5 (stereo partly drawn) | 0.000853 µM (active) | 0.000942 µM (active) | 0.0226 µM (active) |  | 0.00436 µM (active) | 0.0303 µM (active) | 0.00305 µM (active) | 0.00297 µM (active) | 0.00532 µM (active) | 0.0227 µM (active) | 0.00154 µM (active) | 0.00083 µM (active) | 0.00141 µM (active) | 0.000581 µM (active) | 0.00445 µM (active) | 0.0479 µM (active) | 0.00486 | 0.00618 µM (active) | > 0.27 µM (active) | 
4 | CC(=O)OCC1OC(n2c(N)c(C#N)c(-c3cccc(Cl)c3)c(C#N)c2=S)C(OC(C)=O)C(OC(C)=O)C1OC(C)=O (stereo not drawn) | 15.4 µM (inactive) |  | 40.2 µM (inactive) | 12.6 µM (inactive) | 30.5 µM (inactive) | 38.7 µM (inactive) | 26.9 µM (inactive) | 25.2 µM (inactive) | 22.2 µM (inactive) | 37.6 µM (inactive) | 20 µM (inactive) | 19.1 µM (inactive) | 14.3 µM (inactive) | 14.7 µM (inactive) | 16.2 µM (inactive) | 29.1 µM (inactive) | 22.5 | 22.8 µM (inactive) | 44.8 µM (inactive) | 16.7 µM (inactive)
5 | c1ccc(CSc2ccccc2CN2CCN(Cc3ccccc3SCc3ccccc3)CCN(Cc3ccccc3SCc3ccccc3)CC2)cc1 | 1.31 µM (inactive) | 0.395 µM (active) | 2.59 µM (inactive) | 1.86 µM (inactive) |  | 1.88 µM (inactive) | 1.43 µM (inactive) | 1.71 µM (inactive) | 1.61 µM (inactive) | 1.72 µM (inactive) | 1.85 µM (inactive) | 1.52 µM (inactive) | 1.57 µM (inactive) | 2.16 µM (inactive) | 0.869 µM (active) | 2.58 µM (inactive) | 1.61 | 0.869 µM (active) | 1.64 µM (inactive) | 1.45 µM (inactive)
6 | COc1ccc(N2C(=O)CC(C3CC(C(C)(C)C)CCC3=O)C2=O)cc1 (stereo not drawn) | > 100 µM (inactive) | 10.7 µM (inactive) | > 100 µM (inactive) | > 100 µM (inactive) | > 100 µM (inactive) | > 100 µM (inactive) | > 100 µM (inactive) |  | > 100 µM (inactive) | > 100 µM (inactive) | > 100 µM (inactive) | > 100 µM (inactive) | > 100 µM (inactive) | > 100 µM (inactive) | > 100 µM (inactive) | > 100 µM (inactive) | > 100 | > 100 µM (inactive) |  | > 100 µM (inactive)
7 | CC(=O)OCC1OC(n2c(C)c(/N=N/c3ccccc3)c(C)c(C#N)c2=S)C(OC(C)=O)C(OC(C)=O)C1OC(C)=O (stereo not drawn) | > 100 µM (inactive) |  | > 100 µM (inactive) | 58.7 µM (inactive) | 99.1 µM (inactive) | > 100 µM (inactive) | 14.8 µM (inactive) | 46.3 µM (inactive) | 7.38 µM (inactive) | 81.5 µM (inactive) | 5.32 µM (inactive) | > 100 µM (inactive) | 34 µM (inactive) | > 100 µM (inactive) | 86.3 µM (inactive) | > 100 µM (inactive) |  | > 10 µM (inactive) | 86.9 µM (inactive) | 48.9 µM (inactive)
